In series [1] the target is T1, GST-BRII-tail (methionine 501 to leucine 1038) (UniProt Q13873).
T1 sequence: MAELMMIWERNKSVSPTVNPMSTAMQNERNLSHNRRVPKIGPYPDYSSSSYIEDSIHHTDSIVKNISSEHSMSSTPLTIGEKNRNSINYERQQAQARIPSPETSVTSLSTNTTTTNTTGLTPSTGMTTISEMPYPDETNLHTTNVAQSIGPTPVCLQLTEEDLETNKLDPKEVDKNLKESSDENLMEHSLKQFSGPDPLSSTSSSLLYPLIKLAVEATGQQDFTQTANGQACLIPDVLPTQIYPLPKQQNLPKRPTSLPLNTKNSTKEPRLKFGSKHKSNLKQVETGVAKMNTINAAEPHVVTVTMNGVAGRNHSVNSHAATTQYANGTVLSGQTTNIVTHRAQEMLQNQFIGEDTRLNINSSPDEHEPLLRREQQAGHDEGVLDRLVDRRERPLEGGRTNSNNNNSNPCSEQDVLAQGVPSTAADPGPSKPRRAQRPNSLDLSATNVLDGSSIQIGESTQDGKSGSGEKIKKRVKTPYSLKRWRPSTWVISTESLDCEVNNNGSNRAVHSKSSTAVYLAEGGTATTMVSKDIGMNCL

The next series concerns Smad1/5/8. In words: Smad phosphorylation assay in C2C12 cells. The class given is cell-based, mouse. To be noted: without ligand, sh-cGKI versus sh-control. The text has this:
(§1) Whole cellular extracts were subjected to immunoblot using α-pSmad1/5/8 antibody. α-cGKIβ and α-β-actin immunoblotting was used as expression and loading control. To monitor the activity of cGKIβ the membrane was re-probed with α-pVASP antibody. Results were quantified using ImageJ and Smad1 C-terminal phosphorylation was normalized relative to β-actin. […] (C) Efficiency of cGKI knock down using a specific short hairpin-RNA (sh-cGKI) compared to a control (sh-control) was validated in C2C12 cells via immunoblot using α-cGKI antibody. Applied protein amount was controlled by α-β-tubulin antibody. (D) C2C12 cells were transfected with sh-cGKI and sh-control and subjected as in (A) to Smad phosphorylation assay. Smad1/5/8 phosphorylation and protein loading was monitored with α-pSmad1/5/8 and α-β-actin antibodies. Results were quantified using […]) and Smad1/5 C-terminal phosphorylation was normalized relative to β-actin.
(§2) Cell lysis and immunoblotting was performed as described in (Hartung et al., 2006).

Series [2] deals with BMP response element (BRE from Id1 promoter) luciferase reporter. In words: BRE luciferase reporter gene assay in C2C12 cells. It counts as cell-based, mouse. The procedure: Luciferase activity was measured and error bars result from the mean of duplicate measurements. […] Expression of cGKIα/β was controlled by immunoblot using α-cGKI antibody. (C) As in (A and B) except that reporters were co-transfected with sh-cGKI, sh-cGKI mix and sh-control into C2C12 cells. BRE driven luciferase activity was measured and error bars represent deviation of the mean of duplicate measurements. […] Following cell extraction RNA was reverse transcribed into cDNA. The mRNA amount of Id1 was analyzed using Id1 specific primers including the control of applied cDNA by PCR using β-actin specific primers. The result is derived from a representative experiment. (F) As in (A and B), except that reporters were co-transfected with cGKIα and MYC-TFII-I into C2C12 cells. […] Lysates were pooled and immunoblotted for expression of cGKIα and TFII-I. (G) As in (E) except that mRNA amount of cGKI was analyzed using cGKI specific primers. The result is derived from an exemplary experiment. Results were quantified using ImageJ. cGKI mRNA expression was normalized relative to β-actin. […] Fold changes in BRE reporter activities were normalized to the non-treated empty vector control (mean±SD). […] The PDGF- or serum-induced proliferation was measured.
C2C12 cells were transfected with pBRE4-luc and pRL-TK and indicated constructs. […] Luciferase activity was measured according to manufacturer's instructions using the Dual-Luciferase® Reporter Assay System (Promega) and a FB12 or Mithras LB 940 luminometer (Berthold). Expression control was examined by immunoblotting.
(In general: Reporter assays use an easily measured gene product as a stand-in for the process of interest.)

Another series deals with Id1 promoter. Kind of series: Chromatin immunoprecipitation (ChIP) at the Id1 promoter in C2C12 cells. It counts as cell-based, mouse. The conditions noted are these: co-stimulation with or stimulation with 8-Br-cGMP alone, 1 μmol/l, 4 hrs.
For the next series, the system named is VASP. Kind of series: Endogenous VASP phosphorylation in C2C12 cells (immunoblot). It counts as cell-based, mouse. To be noted: 1 μmol/l 8-Br-cGMP. On the procedure:
Endogenous VASP phosphorylation in C2C12 cells was monitored in response to 1 μmol/l and 100 μmol/l 8-Br-cGMP stimulation. Lysates were analyzed using immunoblot α-pVASP and α-β-actin.
In general terms: Immunoblotting shows a protein as a band on a membrane.

A further series relates to cGKI. Kind of series: Immunofluorescence microscopy of cGKI localization in C2C12 cells. It counts as cell-based, mouse. The conditions noted are these: stimulation for 30 min.
The subject of the next series is Smad1. In words: Smad phosphorylation assay in transfected 293T cells. It counts as cell-based. To be noted: 293T cells co-expressing Smad1, non-stimulated and BMP-2/8-Br-cGMP co-stimulated.
Description: as §1, §2

The next series deals with HA-BRII-LF Q657ins16. In words: BRE reporter assay with BRII PAH mutant in C2C12 cells. It counts as cell-based, mouse. The conditions noted are these: C2C12 cells overexpressing cGKI and PAH mutant versus mutant alone. The procedure:
(§3) Luciferase activity was measured and error bars result from the mean of duplicate measurements. […] Expression of cGKIα/β was controlled by immunoblot using α-cGKI antibody. (C) As in (A and B) except that reporters were co-transfected with sh-cGKI, sh-cGKI mix and sh-control into C2C12 cells. BRE driven luciferase activity was measured and error bars represent deviation of the mean of duplicate measurements. […] Luciferase activities are represented as mean of each value and standard deviations result from duplicate measurements. […] Following cell extraction RNA was reverse transcribed into cDNA. The mRNA amount of Id1 was analyzed using Id1 specific primers including the control of applied cDNA by PCR using β-actin specific primers. The result is derived from a representative experiment. (F) As in (A and B), except that reporters were co-transfected with cGKIα and MYC-TFII-I into C2C12 cells. BRE driven luciferase activity was measured, standard deviations result from duplicate measurements. […] Lysates were pooled and immunoblotted for expression of cGKIα and TFII-I. (G) As in (E) except that mRNA amount of cGKI was analyzed using cGKI specific primers. The result is derived from an exemplary experiment. Results were quantified using ImageJ. cGKI mRNA expression was normalized relative to β-actin. […] The PDGF- or serum-induced proliferation was measured. […]

Series [3] has as its system human aortic smooth muscle cells. In words: PDGF- or serum-induced proliferation of human aortic smooth muscle cells expressing BMPRII mutant. The class given is cell-based. The conditions noted are these: cells transfected with MYC-BMPRII-Q567ins16 with cGKI coexpression, 24 h. The procedure: as §3

Description for cGKI: (C) Immunofluorescence staining of cGKI in C2C12 cells after stimulation with BMP-2 or 8-Br-cGMP. DNA was stained using Hoechst dye.
Analysis was done with 63-fold magnification at a Leica DMR (Leica) confocal microscope. To examine the protein localization C2C12 cells or transfected 293T cells were starved for 3 hrs and either stimulated with 10 or 20 nmol/l BMP-2 and/or 1 mmol/18-Br-cGMP for 30 min or for 5 to 60 min or left untreated. Indirect immunofluorescence was performed as described in (Bengtsson and Wilson, 2006). Cells were analyzed using fluorescence microscopy (63-fold magnification, Axiovert 200M, Zeiss).

Regarding recombinant cGKIα (Promega), in series [1], the “in vitro phosphorylation (γ-32P-ATP, autoradiography), cGKIα activated with 8-Br-cGMP” value is given as “BRII-tail was phoshorylated by activated cGKlα”.
Take “sh-cGKI: shRNA construct specific for mouse cGKI, SEQ ID NO 3 (CACCGGGACGATGTTTCTAACAAACGAATTTGTTAGAAACATCGTCC; listed as Homo sapiens)”: in the series on Smad1/5/8, the “endogenous Smad1/5/8 phosphorylation” value is reported as “reduced”. Moreover, the “BRE reporter gene response upon ligand stimulation compared to control cells” value in series [2] (C2C12 cells transfected with sh-cGKI versus sh-control, BMP-2 stimulated) was “less than 50%”.
Consider `Nc1nc2c(nc(Br)n2[C@@H]2O[C@@H]3COP(=O)(O)O[C@H]3[C@H]2O)c(=O)[nH]1` [8-Br-cGMP], for which the “effect on binding of Smad1 and cGKI to the Id1 promoter” value in the series on Id1 promoter is listed as “did not affect”. In series [2] (C2C12 cells, endogenous cGKI, 1 nmol/l BMP-2 and/or 1 μmol/l or 100 μmol/l 8-Br-cGMP, 24 hrs), the “BRE reporter gene activity upon stimulation” value is given as “did not affect”. For the same molecule, in the series with VASP, the “cGKI-mediated VASP phosphorylation” value was “weak cGKI-mediated VASP phosphorylation”. In addition, the “nuclear translocation of endogenous cGKI” value in the series with cGKI is given as “redistribution of cGKI to the nucleus”.

B1: cGKIβ: β isoform of cGMP-dependent protein kinase I, SEQ ID NO 2 (protein, listed as Homo sapiens)
chain: MGTLRDLQYALQEKIEELRQRDALIDELELELDQKDELIQKLQNELDKYRSVIRPATQQAQKQSASTLQGEPRTKRQAISAEPTAFDIQDLSHVTLPFYPKSPQSKDLIKEAILDNDFMKNLELSQIQEIVDCMYPVEYGKDSCIIKEGDVGSLVYVMEDGKVEVTKEGVKLCTMGPGKVFGELAILYNCTRTATVKTLVNVKLWAIDRQCFQTIMMRTGLIKHTEYMEFLKSVPTFQSLPEEILSKLADVLEETHYENGEYIIRQGARGDTFFIISKGTVNVTREDSPSEDPVFLRTLGKGDWFGEKALQGEDVRTANVIAAEAVTCLVIDRDSFKHLIGGLDDVSNKAYEDAEAKAKYEAEAAFFANLKLSDFNIIDTLGVGGFGRVELVQLKSEESKTFAMKILKKRHIVDTRQQEHIRSEKQIMQGAHSDFIVRLYRTFKDSKYLYMLMEACLGGELWTILRDRGSFEDSTTRFYTACVVEAFAYLHSKGIIYRDLKPENLILDHRGYAKLVDFGFAKKIGFGKKTWTFCGTPEYVAPEIILNKGHDISADYWSLGILMYELLTGSPPFSGPDPMKTYNIILRGIDMIEFPKKIAKNAANLIKKLCRDNPSERLGNLKNGVKDIQKHKWFEGFNWEGLRKGTLTPPIIPSVASPTDTSNFDSFPEDNDEPPPDDNSGWDIDF
B1: the “C-terminal Smad1 phosphorylation” value in the series with Smad1 was “resulted in phosphorylation of Smad1”.

B2: cGKI: cGMP-dependent protein kinase I (α or β isoform, SEQ ID NO 1 or 2), overexpressed in cells (protein, UniProt Q13976 2-671, looked up)
cGMP-dependent protein kinase …: SELEEDFAKILMLKEERIKELEKRLSEKEEEIQELKRKLHKCQSVLPVPSTHIGPRTTRAQGISAEPQTYRSFHDLRQAFRKFTKSERSKDLIKEAILDNDFMKNLELSQIQEIVDCMYPVEYGKDSCIIKEGDVGSLVYVMEDGKVEVTKEGVKLCTMGPGKVFGELAILYNCTRTATVKTLVNVKLWAIDRQCFQTIMMRTGLIKHTEYMEFLKSVPTFQSLPEEILSKLADVLEETHYENGEYIIRQGARGDTFFIISKGTVNVTREDSPSEDPVFLRTLGKGDWFGEKALQGEDVRTANVIAAEAVTCLVIDRDSFKHLIGGLDDVSNKAYEDAEAKAKYEAEAAFFANLKLSDFNIIDTLGVGGFGRVELVQLKSEESKTFAMKILKKRHIVDTRQQEHIRSEKQIMQGAHSDFIVRLYRTFKDSKYLYMLMEACLGGELWTILRDRGSFEDSTTRFYTACVVEAFAYLHSKGIIYRDLKPENLILDHRGYAKLVDFGFAKKIGFGKKTWTFCGTPEYVAPEIILNKGHDISADYWSLGILMYELLTGSPPFSGPDPMKTYNIILRGIDMIEFPKKIAKNAANLIKKLCRDNPSERLGNLKNGVKDIQKHKWFEGFNWEGLRKGTLTPPIIPSVASPTDTSNFDSFPEDNDEPPPDDNSGWDIDF
For the molecule B2, the “BRE reporter activity upon overexpression” value in series [2] (transfected C2C12 cells, in the absence of BMP-2) is “increased”. In addition, the “BRE activity in cells expressing the PAH mutant BRII” value in the series with HA-BRII-LF Q657ins16 was “rescues defective BMP signaling”. For the same molecule, the “PDGF- or serum-induced proliferation” value in [3] was “downregulated”.

(Values after patent US20110045568A1, “METHOD FOR RESTORING BMP-RECEPTOR SIGNALING IN A CELL” (FREIE UNIVERSITÄT BERLIN, priority 2008, published 2011).)
